The assay has as its target T1, Recombinant human IL-1β (Homo sapiens, UniProt P01584).
T1 construct: purchased BioLegend 579404
Nature of the assay: IL-6 assay in MRC5 cells: inhibition of IL-1β induced IL-6 secretion (AlphaLISA). It is filed as cell-based. Particulars: inhibition of IL-1β induced IL-6 secretion in MRC5 cells; IL-1β pre-incubated 1 hour with compound; read-out: MRC5 IC50. Here is the method: Procedure for IL-6 Assay in MRC5 Cells
The inhibition of IL-1β induced IL-6 secretion was evaluated in MRC5 cells. Recombinant human IL-1β (BioLegend 579404) at 2×EC80 concentration was prepared in seeding medium, EMEM (ATCC 30-2003) with 0.025% BSA (Sigma A9576), 1× penicillin/streptomycin (Gibco 15070-063), 1×NEAA (Gibco 11140-050), 1× GlutaMax (Gibco 35050-061), and 1× sodium pyruvate (Gibco 11360-070). 20 μL of IL-1β was added to a 384-well collagen-coated plate (Corning 354664) and pre-incubated at ambient temperature for 1 hour with 200 nL of compound dispensed using an ECHO 555 liquid handler. Human lung fibroblast MRC5 cells (ATCC CCL-171) were added at a density of 3000 cells/20 μL per well. The cells were prepared by passaging three times in growth medium, EMEM (ATCC 30-2003) with 10% fetal bovine serum (Gibco 16140-071), 1× penicillin/streptomycin (Gibco 15070-063), 1×NEAA (Gibco 11140-050), 1× GlutaMax (Gibco 35050-061), and 1× sodium pyruvate (Gibco 11360-070) in collagen-coated T175 flasks (Greiner 661950) and harvested in seeding medium after 5 minutes of 0.25% trypsin-EDTA (Gibco 25200-056) digestion. The 384-well collagen-coated plate, containing a final volume of 40 μL, was incubated at 37° C., 5% CO2 overnight. 5 μL of the conditioned medium was transferred to a 384-well AlphaLISA plate (PerkinElmer 6005350) for detection of IL-6 using the human AlphaLISA IL-6 kit (PerkinElmer AL223F) as per the manufacturer's protocol. 20 μL of the acceptor bead/biotinylated antibody mix was added to the 384-well AlphaLISA plate and incubated for 1 hour at ambient temperature. The donor bead mix was protected from light and 25 μL was added to the plate and incubated for 30 minutes at ambient temperature. The AlphaLISA plate was read on an EnVision multimode plate reader (Perkin Elmer model 2104) using the AlphaScreen setting (laser exc at 680 nm and emis at 570 nm). Dose response curves and IC50 values were analyzed using a 4-parameter logistic equation in Spotfire software (Tibco, Palo Alto, CA).

SMILES strings stand for the structures. *1 amine or outer side, *2 acyl side, *3 side chain or, on linkers, in order; H or OH if unused. Where a SMILES comes first, the peptide text is derived from it. [ ]: non-standard residue; d: D form. Trp(βS-Me,4-F) = C[C@@H](c1c[nH]c2cccc(F)c12)[C@H](N)C(=O)O; Bip(4'-COOH) = N[C@@H](Cc1ccc(-c2ccc(C(=O)O)cc2)cc1)C(=O)O; X2 = O=C(O)c1ccc(-c2ccc(C[C@H](N[*:1])C(=O)[*:2])cn2)cc1; X1 = CC(=O)N1CCN(c2ccc(C[C@H](N[*:1])C(=O)[*:2])cn2)CC1; 1Nal(3S-Me) = C[C@@H](c1cccc2ccccc12)[C@H](N)C(=O)O; X12 = CC(=O)NCCOc1ccc(C[C@H](N[*:1])C(=O)[*:2])cn1; Ala(indazol-1-yl) = N[C@@H](Cn1ncc2ccccc21)C(=O)O; Ala(indolin-1-yl) = N[C@@H](CN1CCc2ccccc21)C(=O)O; Phe(4-COOH) = N[C@@H](Cc1ccc(C(=O)O)cc1)C(=O)O; Pro(4R-NH2) = N[C@H]1CN[C@H](C(=O)O)C1; 1Nal = N[C@@H](Cc1cccc2ccccc12)C(=O)O; hTyr = N[C@@H](CCc1ccc(O)cc1)C(=O)O; dDab = NCC[C@@H](N)C(=O)O; dNMeA = CN[C@H](C)C(=O)O; Dab = NCC[C@H](N)C(=O)O; Dap = NC[C@H](N)C(=O)O; Aib = CC(C)(N)C(=O)O

T1 sequence (P01584 117-269): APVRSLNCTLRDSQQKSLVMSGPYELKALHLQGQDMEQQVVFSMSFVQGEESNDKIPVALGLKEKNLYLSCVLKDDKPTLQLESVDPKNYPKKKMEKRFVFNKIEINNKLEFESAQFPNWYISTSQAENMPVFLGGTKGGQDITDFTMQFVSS

With `CC(=O)N1CCN(c2ccc(C[C@@H]3NC(=O)[C@H](CCc4ccc(O)cc4)NC(=O)[C@@H](C)NC(=O)[C@H](CC(C)C)NC(=O)[C@H](CCCCN)NC(=O)[C@H](Cc4ccc(-c5ccc(C(=O)O)cc5)cc4)NC(=O)CNC(=O)[C@@H](C)N(C)C(=O)[C@H](CC(=O)O)NC(=O)[C@H]([C@@H](C)c4c[nH]c5cccc(F)c45)NC(=O)[C@@H]4C[C@@H](N)CN4C(=O)CNC(=O)[C@H](Cc4ccc(C(=O)O)cc4)NC(=O)[C@H](Cc4c[nH]c5ccccc45)NC3=O)cn2)CC1` [Example 6] (cyclo([X1]W[Phe(4-COOH)]G[Pro(4R-NH2)][Trp(βS-Me,4-F)]D[dNMeA]G[Bip(4'-COOH)]KL[dA][hTyr])), the IC50 is 0.0666 nM.
To `CC(=O)N1CCN(c2ccc(C[C@@H]3NC(=O)[C@H](CCc4ccc(O)cc4)NC(=O)[C@@H](CCN)NC(=O)[C@H](CC(C)C)NC(=O)[C@H](CCCCN)NC(=O)[C@H](Cc4ccc(-c5ccc(C(=O)O)cc5)cc4)NC(=O)CNC(=O)[C@@H](C)N(C)C(=O)[C@H](CC(=O)O)NC(=O)[C@H]([C@@H](C)c4c[nH]c5cccc(F)c45)NC(=O)[C@@H]4C[C@@H](N)CN4C(=O)CNC(=O)[C@H](Cc4ccc(C(=O)O)cc4)NC(=O)[C@H](Cc4c[nH]c5ccccc45)NC3=O)cn2)CC1` [Example 7] (cyclo([X1]W[Phe(4-COOH)]G[Pro(4R-NH2)][Trp(βS-Me,4-F)]D[dNMeA]G[Bip(4'-COOH)]KL[dDab][hTyr])) belongs 0.135 nM; to `CC(=O)N1CCN(c2ccc(C[C@@H]3NC(=O)[C@H](CCc4ccc(O)cc4)NC(=O)[C@@H](CCN)NC(=O)CNC(=O)[C@H](Cc4c[nH]c5ccccc45)NC(=O)[C@H](Cc4ccc(-c5ccc(C(=O)O)cc5)cc4)NC(=O)CNC(=O)[C@@H](C)N(C)C(=O)[C@H](CC(=O)O)NC(=O)[C@H]([C@@H](C)c4c[nH]c5cccc(F)c45)NC(=O)[C@@H]4C[C@@H](N)CN4C(=O)CNC(=O)[C@H](Cc4ccc(C(=O)O)cc4)NC(=O)[C@H](Cc4c[nH]c5ccccc45)NC3=O)cn2)CC1` [Example 8] (cyclo([X1]W[Phe(4-COOH)]G[Pro(4R-NH2)][Trp(βS-Me,4-F)]D[dNMeA]G[Bip(4'-COOH)]WG[dDab][hTyr])), 0.14 nM; to `CC(=O)NCCOc1ccc(C[C@@H]2NC(=O)[C@H](CCc3ccc(O)cc3)NC(=O)[C@@H](C)NC(=O)[C@H](CC(C)C)NC(=O)[C@H](CCCCN)NC(=O)[C@H](Cc3ccc(-c4ccc(C(=O)O)cc4)cc3)NC(=O)CNC(=O)[C@@H](C)N(C)C(=O)[C@H](CC(=O)O)NC(=O)[C@H]([C@@H](C)c3c[nH]c4cccc(F)c34)NC(=O)[C@@H]3C[C@@H](N)CN3C(=O)CNC(=O)[C@H](Cc3ccc(C(=O)O)cc3)NC(=O)[C@H](Cc3c[nH]c4ccccc34)NC2=O)cn1` [Example 9] (cyclo([X12]W[Phe(4-COOH)]G[Pro(4R-NH2)][Trp(βS-Me,4-F)]D[dNMeA]G[Bip(4'-COOH)]KL[dA][hTyr])), 0.118 nM.
The same measure for `C[C@@H]1C(=O)NCC(=O)N[C@@H](Cc2ccc(-c3ccc(C(=O)O)cc3)nc2)C(=O)N[C@@H](Cc2c[nH]c3ccccc23)C(=O)N[C@@H](CN)C(=O)N[C@H](C)C(=O)N[C@@H](CCc2ccc(O)cc2)C(=O)N[C@@H](Cc2ccc(-c3ccc(C(=O)O)cc3)nc2)C(=O)N[C@@H](Cc2c[nH]c3ccccc23)C(=O)N[C@@H](Cc2ccc(C(=O)O)cc2)C(=O)NCC(=O)N2C[C@H](N)C[C@H]2C(=O)N[C@@H]([C@@H](C)c2cccc3ccccc23)C(=O)N[C@@H](CC(=O)O)C(=O)N1C` [Example 10] (cyclo([X2]W[Phe(4-COOH)]G[Pro(4R-NH2)][1Nal(3S-Me)]D[dNMeA]G[X2]W[Dap][dA][hTyr])): 0.256 nM.
The same measure for `C[C@@H]1C(=O)NCC(=O)N[C@@H](Cc2ccc(-c3ccc(C(=O)O)cc3)cc2)C(=O)N[C@@H](Cc2c[nH]c3ccccc23)C(=O)N[C@@H](CN)C(=O)N[C@H](C)C(=O)N[C@@H](CCc2ccc(O)cc2)C(=O)N[C@@H](Cc2ccc(-c3ccc(C(=O)O)cc3)nc2)C(=O)N[C@@H](Cc2c[nH]c3ccccc23)C(=O)N[C@@H](Cc2ccc(C(=O)O)cc2)C(=O)NCC(=O)N2C[C@H](N)C[C@H]2C(=O)N[C@@H]([C@@H](C)c2cccc3ccccc23)C(=O)N[C@@H](CC(=O)O)C(=O)N1C` [Example 11] (cyclo([X2]W[Phe(4-COOH)]G[Pro(4R-NH2)][1Nal(3S-Me)]D[dNMeA]G[Bip(4'-COOH)]W[Dap][dA][hTyr])): 0.0908 nM; for `C[C@@H]1C(=O)NCC(=O)N[C@@H](Cc2ccc(-c3ccc(C(=O)O)cc3)nc2)C(=O)N[C@@H](Cc2c[nH]c3ccccc23)C(=O)N[C@@H](CN)C(=O)N[C@H](C)C(=O)N[C@@H](CCc2ccc(O)cc2)C(=O)N[C@@H](Cc2ccc(-c3ccc(C(=O)O)cc3)cc2)C(=O)N[C@@H](Cc2c[nH]c3ccccc23)C(=O)N[C@@H](Cc2ccc(C(=O)O)cc2)C(=O)NCC(=O)N2C[C@H](N)C[C@H]2C(=O)N[C@@H]([C@@H](C)c2cccc3ccccc23)C(=O)N[C@@H](CC(=O)O)C(=O)N1C` [Example 12] (cyclo([Bip(4'-COOH)]W[Phe(4-COOH)]G[Pro(4R-NH2)][1Nal(3S-Me)]D[dNMeA]G[X2]W[Dap][dA][hTyr])): 0.0551 nM.
Take `C[C@@H]1C(=O)NCC(=O)N[C@@H](Cc2ccc(-c3ccc(C(=O)O)cc3)cc2)C(=O)N[C@@H](Cn2ncc3ccccc32)C(=O)N[C@@H](CN)C(=O)N[C@H](C)C(=O)N[C@@H](CCc2ccc(O)cc2)C(=O)N[C@@H](Cc2ccc(-c3ccc(C(=O)O)cc3)cc2)C(=O)N[C@@H](Cc2c[nH]c3ccccc23)C(=O)N[C@@H](Cc2ccc(C(=O)O)cc2)C(=O)NCC(=O)N2C[C@H](N)C[C@H]2C(=O)N[C@@H]([C@@H](C)c2cccc3ccccc23)C(=O)N[C@@H](CC(=O)O)C(=O)N1C` [Example 13] (cyclo([Bip(4'-COOH)]W[Phe(4-COOH)]G[Pro(4R-NH2)][1Nal(3S-Me)]D[dNMeA]G[Bip(4'-COOH)][Ala(indazol-1-yl)][Dap][dA][hTyr])): the IC50 was 0.031 nM.
The same measure for `C[C@@H]1C(=O)NCC(=O)N[C@@H](Cc2ccc(-c3ccc(C(=O)O)cc3)cc2)C(=O)N[C@@H](CN2CCc3ccccc32)C(=O)N[C@@H](CN)C(=O)N[C@H](C)C(=O)N[C@@H](CCc2ccc(O)cc2)C(=O)N[C@@H](Cc2ccc(-c3ccc(C(=O)O)cc3)cc2)C(=O)N[C@@H](Cc2c[nH]c3ccccc23)C(=O)N[C@@H](Cc2ccc(C(=O)O)cc2)C(=O)NCC(=O)N2C[C@H](N)C[C@H]2C(=O)N[C@@H]([C@@H](C)c2cccc3ccccc23)C(=O)N[C@@H](CC(=O)O)C(=O)N1C` [Example 14] (cyclo([Bip(4'-COOH)]W[Phe(4-COOH)]G[Pro(4R-NH2)][1Nal(3S-Me)]D[dNMeA]G[Bip(4'-COOH)][Ala(indolin-1-yl)][Dap][dA][hTyr])): 0.0297 nM.
The same measure for `C[C@@H]1C(=O)NCC(=O)N[C@@H](Cc2ccc(-c3ccc(C(=O)O)cc3)cc2)C(=O)N[C@@H](Cc2cccc3ccccc23)C(=O)N[C@@H](CCN)C(=O)NC(C)(C)C(=O)NCC(=O)N[C@@H](Cc2ccc(-c3ccc(C(=O)O)cc3)cc2)C(=O)N[C@@H](Cc2c[nH]c3ccccc23)C(=O)N[C@@H](Cc2ccc(C(=O)O)cc2)C(=O)NCC(=O)N2C[C@H](N)C[C@H]2C(=O)N[C@@H]([C@@H](C)c2cccc3ccccc23)C(=O)N[C@@H](CC(=O)O)C(=O)N1C` [Example 15] (cyclo([Bip(4'-COOH)]W[Phe(4-COOH)]G[Pro(4R-NH2)][1Nal(3S-Me)]D[dNMeA]G[Bip(4'-COOH)][1Nal][Dab][Aib]G)): 0.653 nM.

These data come from patent US20230406885A1, “CYCLIC PEPTIDES FOR TRAPPING INTERLEUKIN-1 BETA” (MERCK SHARP & DOHME LLC, priority 2022, published 2023).
